According to article PMC4660985 (Biochemistry, 2015):

Tests used:
[1] = target: CYP125A3 (Mycolicibacterium smegmatis, UniProt A0R4Y3); test: UV-vis spectral titration; type: binding
[2] = target: T1, CYP125A4 (Mycolicibacterium smegmatis, UniProt A0QY38); test: UV-vis spectral titration; type: binding
T1 sequence (A0QY38 1-430): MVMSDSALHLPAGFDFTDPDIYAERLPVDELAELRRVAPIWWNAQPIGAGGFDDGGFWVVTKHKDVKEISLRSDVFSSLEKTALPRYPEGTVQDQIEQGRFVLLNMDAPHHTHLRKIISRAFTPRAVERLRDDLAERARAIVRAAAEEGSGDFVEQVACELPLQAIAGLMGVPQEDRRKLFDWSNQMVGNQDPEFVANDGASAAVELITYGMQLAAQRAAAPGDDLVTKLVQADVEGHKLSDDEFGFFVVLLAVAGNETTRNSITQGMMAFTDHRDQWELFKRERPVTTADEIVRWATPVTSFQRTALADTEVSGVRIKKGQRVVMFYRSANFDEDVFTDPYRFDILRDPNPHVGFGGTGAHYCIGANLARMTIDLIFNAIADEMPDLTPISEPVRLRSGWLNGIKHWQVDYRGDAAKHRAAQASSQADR

[3] = target: T1, CYP125A4; test: UV-vis partial type I spectral shift; type: binding
[4] = test system: CC(C)CCC[C@@H](C)[C@H]1CC[C@H]2[C@@H]3CCC4=CC(=O)CC[C@]4(C)[C@H]3CC[C@]12C; test: steady-state turnover of purified enzyme, HPLC; type: biochemical, Mycolicibacterium smegmatis; details: heme
[5] = test system: CC(C)CCC[C@@H](C)[C@H]1CC[C@H]2[C@@H]3[C@H](O)CC4=CC(=O)CC[C@]4(C)[C@H]3CC[C@]12C; test: steady-state turnover of purified enzyme, HPLC; type: biochemical, Mycolicibacterium smegmatis; details: heme

CYP125A3, sequence (A0R4Y3 whole entry): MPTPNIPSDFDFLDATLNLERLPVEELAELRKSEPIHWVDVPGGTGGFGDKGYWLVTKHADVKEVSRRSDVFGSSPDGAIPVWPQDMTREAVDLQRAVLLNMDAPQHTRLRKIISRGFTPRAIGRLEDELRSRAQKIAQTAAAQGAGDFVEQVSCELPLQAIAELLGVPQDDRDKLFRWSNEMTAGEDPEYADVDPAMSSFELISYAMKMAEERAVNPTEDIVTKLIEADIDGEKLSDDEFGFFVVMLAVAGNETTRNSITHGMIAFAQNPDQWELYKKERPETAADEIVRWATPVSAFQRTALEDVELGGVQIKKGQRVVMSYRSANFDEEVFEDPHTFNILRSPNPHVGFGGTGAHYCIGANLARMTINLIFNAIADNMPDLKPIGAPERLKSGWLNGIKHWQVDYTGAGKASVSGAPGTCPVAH

CC(C)CCC[C@@H](C)[C@H]1CC[C@H]2[C@@H]3[C@H](O)C=C4C[C@@H](O)CC[C@]4(C)[C@H]3CC[C@]12C [7α-hydroxycholesterol]
Kd [1]: 32.9 ± 4.7 µM
Kd [2]: 8.7 ± 0.5 µM

CC(C)CCC[C@@H](C)[C@H]1CC[C@H]2[C@@H]3CC=C4C[C@@H](O)CC[C@]4(C)[C@H]3CC[C@]12C [cholesterol]
UV-vis partial type I spectral shift; C-26 oxidation by HPLC [3]: Addition of cholesterol or 4-cholesten-3-one did induce a partial shift to the type I high-spin species

CYP125A3 W83Y (Mycolicibacterium smegmatis MC2 155; W83Y)
Km [4]: 24.1 ± 7.8 µM

CYP125A4 Y87W (Mycolicibacterium smegmatis MC2 155; Y87W)
Km [5]: 5.1 ± 1.3 µM
